Experimental data published in PubChem BioAssay AID2060884 (Molecular Pharmacology Branch, DTP, NCI, 2025).

Tested on: NCI-H929 complex spheroids, viability % test/control
Assay: Anticancer human tumor NCI-H929 cell line growth inhibition [RAS];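 note: compound exposure lasted seven days before viability was read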;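 for viability, T/C: 100% = DMSO vehicle control viability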
Details: for IC50: curve of first compound; for viability, T/C: stronger effect = lower value; active = viability on the fitted dose curve at most 10% of control; inactive = the rest
How it was run: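 Tumour cells grown as complex spheroids with HUVEC endothelial cells and mesenchymal stem cells, treated with RAS pathway inhibitor combinations. Each agent spans half-log steps from near clinical Cmax, or 10 microM where Cmax is unknown.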

CC1(C)CCC(Nc2ncc(C(F)(F)F)c(-c3c[nH]c4c(P(C)(C)=O)c(C#N)ccc34)n2)CN1 (configuration not stated) + C=CC(=O)N1CCN(c2nc(OCC3CCCN3C)nc3c(F)c(-c4nc(N)cc(C)c4C(F)(F)F)c(Cl)cc23)C(C)C1
5.68 nM: IC50 (second compound 0.00316 µM)
inactive: viability, T/C (second compound 0.00316 µM, first compound 0.000949 µM) 128% | viability, T/C (second compound 0.00316 µM, first compound 0.003 µM) 92.7% | viability, T/C (second compound 0.00316 µM, first compound 0.00949 µM) 15.7% | viability, T/C (second compound 0.01 µM, first compound 0.000949 µM) 125% | viability, T/C (second compound 0.01 µM, first compound 0.003 µM) 109% | viability, T/C (second compound 0.01 µM, first compound 0.00949 µM) 16.1% | viability, T/C (second compound 0.0316 µM, first compound 0.000949 µM) 125% | viability, T/C (second compound 0.0316 µM, first compound 0.003 µM) 111% | viability, T/C (second compound 0.0316 µM, first compound 0.00949 µM) 16.7% | viability, T/C (second compound 0.1 µM, first compound 0.000949 µM) 123% | viability, T/C (second compound 0.1 µM, first compound 0.003 µM) 114% | viability, T/C (second compound 0.1 µM, first compound 0.00949 µM) 16.6% | viability, T/C (second compound 0.316 µM, first compound 0.000949 µM) 129% | viability, T/C (second compound 0.316 µM, first compound 0.003 µM) 114% | viability, T/C (second compound 0.316 µM, first compound 0.00949 µM) 18.5% | viability, T/C (second compound 1 µM, first compound 0.000949 µM) 132% | viability, T/C (second compound 1 µM, first compound 0.003 µM) 125% | viability, T/C (second compound 1 µM, first compound 0.00949 µM) 17%
6.68 nM: IC50 (second compound 1 µM)
6.25 nM: IC50 (second compound 0.01 µM)
6.39 nM: IC50 (second compound 0.1 µM)
6.33 nM: IC50 (second compound 0.0316 µM)
active: viability, T/C (second compound 0.00316 µM, first compound 0.03 µM) 9.6% | viability, T/C (second compound 0.00316 µM, first compound 0.0949 µM) 8.73% | viability, T/C (second compound 0.00316 µM, first compound 0.3 µM) 5.5% | viability, T/C (second compound 0.01 µM, first compound 0.03 µM) 12.3% | viability, T/C (second compound 0.01 µM, first compound 0.0949 µM) 9.77% | viability, T/C (second compound 0.01 µM, first compound 0.3 µM) 5.17% | viability, T/C (second compound 0.0316 µM, first compound 0.03 µM) 11.4% | viability, T/C (second compound 0.0316 µM, first compound 0.0949 µM) 7.81% | viability, T/C (second compound 0.0316 µM, first compound 0.3 µM) 5.16% | viability, T/C (second compound 0.1 µM, first compound 0.03 µM) 11.9% | viability, T/C (second compound 0.1 µM, first compound 0.0949 µM) 7.35% | viability, T/C (second compound 0.1 µM, first compound 0.3 µM) 5.2% | viability, T/C (second compound 0.316 µM, first compound 0.03 µM) 9.66% | viability, T/C (second compound 0.316 µM, first compound 0.0949 µM) 8.16% | viability, T/C (second compound 0.316 µM, first compound 0.3 µM) 5.67% | viability, T/C (second compound 1 µM, first compound 0.03 µM) 13.4% | viability, T/C (second compound 1 µM, first compound 0.0949 µM) 9.36% | viability, T/C (second compound 1 µM, first compound 0.3 µM) 6.92%
6.5 nM: IC50 (second compound 0.316 µM)
